We go through 13 molecules from US12098145B2 (Libra Therapeutics, Inc., priority 2022, dated 2024).

The target of one experiment is T1, TRPML1 (Homo sapiens, UniProt Q9GZU1).
T1 construct: expressed in transfected cells; host or cells: HEK T-REx cells stably expressing GCaMP6f and TRPML1
As to the kind of experiment: Cellular TRPML1 assay (FLIPR, GCaMP6f calcium read-out). In kind it is cell-based. Summed up: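 Read-out is GCaMP6f fluorescence over 300 s after compound addition in Ca2+-free Tyrode's buffer, final DMSO 0.5%, on FLIPR Tetra. Cells are HEK T-REx stably co-expressing the indicator and TRPML1, plated 24 h earlier in Optimem + 0.5% FBS and pre-incubated ~10 min at room temperature.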

The subject of the next experiment is TFEB. As to the kind of experiment: TFEB translocation assay (TFEB reporter in U2OS cells, imaging). It is filed as cell-based. The conditions noted are these: Homo sapiens; U2OS cell line with TFEB reporter, 2 hours incubation, nucleus to cytoplasm ratio, normalized to Torin-1; read-out: TFEB Translocation pEC50 (converted). Summed up: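 Activity expresses the mean nuclear-to-cytosolic reporter ratio scaled between DMSO (0%) and Torin-1 (100%) controls. Read-out came from high-content imaging of fixed, Hoechst-counterstained U2OS cells carrying mRFP-tagged TFEB after 2 h compound exposure at 37 °C in Opti-MEM with 0.015% Tween 80 and 0.5% DMSO.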

[1] abbreviates: HEKT-REx/GCaMP6f/TRPML1 cells, FLIPR TETRA, kinetic response over 300 seconds, read-out: TRPML1 FLIPR pEC50 (converted).

Molecules are shown by their SMILES. Where two headings read alike, the source gives them in different places.

T1 sequence (Q9GZU1 whole entry): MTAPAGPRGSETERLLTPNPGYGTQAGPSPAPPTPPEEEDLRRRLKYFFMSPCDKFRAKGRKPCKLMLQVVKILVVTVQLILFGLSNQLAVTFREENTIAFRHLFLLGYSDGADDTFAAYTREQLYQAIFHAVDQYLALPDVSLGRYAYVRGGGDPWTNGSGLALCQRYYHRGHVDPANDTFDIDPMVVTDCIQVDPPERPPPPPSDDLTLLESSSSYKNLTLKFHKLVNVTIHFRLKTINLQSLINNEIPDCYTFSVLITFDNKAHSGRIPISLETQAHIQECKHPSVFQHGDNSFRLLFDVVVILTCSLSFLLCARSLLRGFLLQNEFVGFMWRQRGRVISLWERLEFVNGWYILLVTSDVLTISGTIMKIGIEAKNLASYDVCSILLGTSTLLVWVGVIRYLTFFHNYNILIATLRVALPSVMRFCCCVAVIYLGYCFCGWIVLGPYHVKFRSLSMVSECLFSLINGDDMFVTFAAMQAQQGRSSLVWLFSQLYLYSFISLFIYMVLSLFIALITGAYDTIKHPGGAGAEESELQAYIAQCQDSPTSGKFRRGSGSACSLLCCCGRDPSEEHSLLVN

With `O=C(Nc1ccc(O[C@@H]2C[C@@H]3C[C@@H]3C2)c(F)c1)c1nc(N2CCC3CCCC32)oc1CC(F)(F)F` (stereo partly drawn) [Example 162, N-(4-(cis-bicyclo[3.1.0]hexan-3-yloxy)-3-fluorophenyl)-2-(hexahydrocyclopenta[b]pyrrol-1(2H)-yl)-5-(2,2,2-trifluoroethyl)oxazole-4-carboxamide], the EC50 on TRPML1 (setting [1]) and in the experiment on TFEB was 10 to 1000 nM in each case.
For `O=C(Nc1cc(F)c(OC2CC3CC(C3)C2)c(F)c1)c1nc(N2CCC3(CC3)C2)oc1CCF` (centres unmarked) [Example 284, N-(4-(bicyclo[3.1.1]heptan-3-yloxy)-3,5-difluorophenyl)-5-(2-fluoroethyl)-2-(5-azaspiro[2.4]heptan-5-yl)oxazole-4-carboxamide], the EC50 on TRPML1 (setting [1]) and in the experiment with TFEB was 10 to 1000 nM in each case.
In the case of `O=C(Nc1cc(F)c(O[C@@H]2C[C@@H]3C[C@@H]3C2)c(F)c1)c1nc(N2CCCC2)oc1CC(F)(F)F` [Example 39, N-(4-(cis-bicyclo[3.1.0]hexan-3-yloxy)-3,5-difluorophenyl)-2-(pyrrolidin-1-yl)-5-(2,2,2-trifluoroethyl)oxazole-4-carboxamide], the EC50 on TRPML1 (setting [1]) and in the experiment on TFEB was 10 to 1000 nM in each case.
For `COC1(C)CN(c2nc(C(=O)Nc3cc(O)c(N4C5CCCC4CC5)c(F)c3)c(CC(F)(F)F)o2)C1` [Example 272, N-(4-(8-azabicyclo[3.2.1]octan-8-yl)-3-fluoro-5-hydroxyphenyl)-2-(3-methoxy-3-methylazetidin-1-yl)-5-(2,2,2-trifluoroethyl)oxazole-4-carboxamide], the EC50 at TRPML1 and in the experiment with TFEB was 10 to 1000 nM in each case.
Turning to `O=C(Nc1ccc(N2C3CCCC2C3)c(F)c1)c1nc(N2CCCC2)oc1CC(F)(F)F` [Example 83, N-(4-{6-azabicyclo[3.1.1]heptan-6-yl}-3-fluorophenyl)-2-(pyrrolidin-1-yl)-5-(2,2,2-trifluoroethyl)oxazole-4-carboxamide], the EC50 on TRPML1 and in the experiment on TFEB was 10 to 1000 nM throughout.
Turning to `CCC1(OC)CN(c2nc(C(=O)Nc3cc(F)c(N4CC5CC(C5)C4)c(F)c3)c(CC(F)(F)F)o2)C1` [Example 203, N-(4-(3-azabicyclo[3.1.1]heptan-3-yl)-3,5-difluorophenyl)-2-(3-ethyl-3-methoxyazetidin-1-yl)-5-(2,2,2-trifluoroethyl)oxazole-4-carboxamide], the EC50 at TRPML1 and with TFEB was 10 to 1000 nM in each case.
`Cc1oc(N2CCC3(COC3)C2)nc1C(=O)Nc1ccc(N2CCCCC2)c(F)c1` [Example 90, N-(3-fluoro-4-(piperidin-1-yl)phenyl)-5-methyl-2-(2-oxa-6-azaspiro[3.4]octan-6-yl)oxazole-4-carboxamide]: the EC50 on TRPML1 (setting [1]) and in the experiment with TFEB was 1000 to 10000 nM in each case.
With `O=C(Nc1cc(F)c(OC2CC3CC(C3)C2)c(F)c1)c1nc(N2CCCC2)oc1CCF` (centres unmarked) [Example 279, N-(4-(bicyclo[3.1.1]heptan-3-yloxy)-3,5-difluorophenyl)-5-(2-fluoroethyl)-2-(pyrrolidin-1-yl)oxazole-4-carboxamide], the EC50 at TRPML1 (setting [1]) and with TFEB was 10 to 1000 nM throughout.
Regarding `Cc1cc(NC(=O)c2nc(N3CCCC3)oc2CCF)cc(F)c1OC1CC2CC(C2)C1` (centres unmarked) [Example 278, N-(4-(bicyclo[3.1.1]heptan-3-yloxy)-3-fluoro-5-methylphenyl)-5-(2-fluoroethyl)-2-(pyrrolidin-1-yl)oxazole-4-carboxamide], the EC50 at TRPML1 (setting [1]) and in the experiment on TFEB was 10 to 1000 nM each time.
`COC1(C)CN(c2nc(C(=O)Nc3cc(F)c(N4C5CCCC4CC5)c(F)c3)c(CC(F)(F)F)o2)C1` [Example 207, N-(4-(8-azabicyclo[3.2.1]octan-8-yl)-3,5-difluorophenyl)-2-(3-methoxy-3-methylazetidin-1-yl)-5-(2,2,2-trifluoroethyl)oxazole-4-carboxamide]: the EC50 at TRPML1 and with TFEB was 10 to 1000 nM each time.
In the case of `CCc1oc(N2CC(CC)(OC)C2)nc1C(=O)Nc1cc(C)c(O[C@@H]2C[C@@H]3C[C@@H]3C2)c(F)c1` [Example 227, N-(4-(cis-bicyclo[3.1.0]hexan-3-yloxy)-3-fluoro-5-methylphenyl)-5-ethyl-2-(3-ethyl-3-methoxyazetidin-1-yl)oxazole-4-carboxamide], the EC50 at TRPML1 (setting [1]) and in the experiment on TFEB was 10 to 1000 nM each time.
In the case of `COC1(C)CN(c2nc(C(=O)Nc3ccc(N4C5CCCC4CC5)c(C#N)c3)c(CC(F)(F)F)o2)C1` [Example 197, N-(4-(8-azabicyclo[3.2.1]octan-8-yl)-3-cyanophenyl)-2-(3-methoxy-3-methylazetidin-1-yl)-5-(2,2,2-trifluoroethyl)oxazole-4-carboxamide], the EC50 at TRPML1 and in the experiment with TFEB was 10 to 1000 nM each time.
Turning to `CCOCc1oc(N2CCCC2)nc1C(=O)Nc1ccc(N2CCCCC2)c(F)c1` [Example 100, 5-(ethoxymethyl)-N-[3-fluoro-4-(piperidin-1-yl)phenyl]-2-(pyrrolidin-1-yl)oxazole-4-carboxamide], the EC50 on TRPML1 (setting [1]) and in the experiment on TFEB was 1000 to 10000 nM each time.
